In patent publication US9161990B2, “Hydrochloride salts of a glycopeptide-cephalosporin antbiotic compond” (THERAVANCE BIOPHARMA ANTIBIOTICS IP, LLC, priority 2013, dated 2015):
Where a name gives a salt, the structure may show the parent alone.

What was measured:
[1] = Storage stability of lyophilized hydrochloride salts (purity by HPLC); format: physicochemical; details: for Purity (HPLC area percent) / Δ (change in percent purity from time = 0) / decrease in purity: dihydrochloride; for decrease in purity: listed as dihydrochloride salt
Method: (§1) All solvents were HPLC grade and were purchased from Honeywell Burdick & Jackson (Muskegon, Mich. 49442). Phosphoric acid (85% w/w) and sodium dihydrogen phosphate were HPLC grade and were purchased from Fluka (Sigma-Aldrich, St. Louis, Mo. 63103). All reagents were used without further purification.
(§2) Test samples were filtered through a 0.2 μm polyvinylidene fluoride (PVDF) filter before analysis and the first 1 mL was discarded.
(§3) Test sample purity was determined based on the integrated peak area (area-under-the-curve or AUC) for the compound as a percentage of all integrated peaks. The concentration (assay value) of the compound in a test sample was determined by comparison with a reference standard.
(§4) One rack was stored protected from light in a drawer at room temperature and the other rack was stored in a refrigerator at 2 to 8° C. A representative vial of each type of stability sample was analyzed by HPLC after storage for 1, 3, 6 and 12 months to determine purity.

[2] = Storage stability of hydrochloride salts in a lyophilized composition containing sucrose and glycine (purity by HPLC); format: physicochemical; details: for Δ (change in percent purity from time = 0) / Purity (HPLC area percent): composition containing sucrose and glycine; for Δ (change in percent purity from time = 0) / Purity (HPLC area percent) / decrease in purity: dihydrochloride; for decrease in purity: formulated with sucrose and glycine, listed as dihydrochloride salt
Method: as §1, §2, §3, §4

[3] = refrigerated temperature (2 to 8° C.), 1 month
[4] = refrigerated temperature (2 to 8° C.), 3 months
[5] = refrigerated temperature (2 to 8° C.), 6 months
[6] = refrigerated temperature (2 to 8° C.), 12 months
[7] = room temperature, 1 month, listed as Di HCl
[8] = room temperature, 3 months, listed as Di HCl
[9] = room temperature, 6 months, listed as Di HCl
[10] = room temperature, 12 months, listed as Di HCl
[11] = stored at 2 to 8° C. for 12 months
[12] = stored at room temperature for 12 months

## CN[C@H](CC(C)C)C(=O)NC1C(=O)N[C@@H](CC(N)=O)C(=O)N[C@H]2C(=O)N[C@H]3C(=O)N[C@H](C(=O)N[C@H](C(=O)NCCCO/N=C(\C(=O)N[C@@H]4C(=O)N5C(C(=O)[O-])=C(C[n+]6ccccc6)CS[C@H]45)c4nc(N)sc4Cl)c4cc(O)cc(O)c4-c4cc3ccc4O)[C@H](O)c3ccc(c(Cl)c3)Oc3cc2cc(c3O[C@@H]2O[C@H](CO)[C@@H](O)[C@H](O)[C@H]2O[C@H]2C[C@](C)(N)[C@H](O)[C@H](C)O2)Oc2ccc(cc2Cl)[C@H]1O (stereo partly drawn) [Dihydrochloride, 26-[[[3-[[(Z)-[1-(2-amino-5-chloro-4-thiazolyl)-2-[[(6R,7R)-2-carboxy-8-oxo-3-(pyridiniomethyl)-5-thia-1-azabicyclo[4.2.0]oct-2-en-7-yl]amino]-2-oxoethylidene]amino]oxy]propyl]amino]carbonyl]-26-decarboxyvancomycin dihydrochloride]
[1]; [3]
  Purity (HPLC area percent): 89.9%
  Δ (change in percent purity from time = 0): −0.2%
[1]; [4]
  Purity (HPLC area percent): 89.4%
  Δ (change in percent purity from time = 0): −0.7%
[1]; [5]
  Δ (change in percent purity from time = 0): 0.7%
[1]; [6]
  Purity (HPLC area percent): 87.2%
  Δ (change in percent purity from time = 0): −2.9%
[1]; refrigerated temperature (2 to 8° C.), time 0 months
  Purity (HPLC area percent): 90.1%
[1]; room temperature, 1 month
  Purity (HPLC area percent): 85.3%
  Δ (change in percent purity from time = 0): −4.8%
[1]; [7]
  Purity (HPLC area percent): 85.3%
  Δ (change in percent purity from time = 0): −4.8%
[1]; room temperature, 3 months
  Purity (HPLC area percent): 82.5%
  Δ (change in percent purity from time = 0): −7.6%
[1]; [8]
  Purity (HPLC area percent): 82.5%
  Δ (change in percent purity from time = 0): −7.6%
[1]; room temperature, 6 months
  Purity (HPLC area percent): 81.4%
  Δ (change in percent purity from time = 0): −8.7%
[1]; [9]
  Purity (HPLC area percent): 81.4%
  Δ (change in percent purity from time = 0): −8.7%
[1]; room temperature, 12 months
  Purity (HPLC area percent): 69.6%
  Δ (change in percent purity from time = 0): −20.5%
[1]; [10]
  Purity (HPLC area percent): 69.6%
  Δ (change in percent purity from time = 0): −20.5%
[1]; room temperature, time 0 months
  Purity (HPLC area percent): 90.1%
[1]; room temperature, time 0 months, listed as Di HCl
  Purity (HPLC area percent): 90.1%
[1]; [11]
  decrease in purity: 2.9%
[1]; [12]
  decrease in purity: 20.5%
[1]; stored for 12 months at either room temperature or 2 to 8° C.
  storage stability compared to the trihydrochloride salt: significantly more stable than the trihydrochloride salt
[2]; [3]
  Δ (change in percent purity from time = 0): −0.3%
[2]; [4]
  Purity (HPLC area percent): 89.4%
  Δ (change in percent purity from time = 0): −0.7%
[2]; [5]
  Δ (change in percent purity from time = 0): 0.7%
[2]; [6]
  Purity (HPLC area percent): 87.2%
  Δ (change in percent purity from time = 0): −2.9%
[2]; room temperature, 1 month
  Δ (change in percent purity from time = 0): −0.8%
[2]; room temperature, 3 months
  Δ (change in percent purity from time = 0): −2.9%
[2]; room temperature, 6 months
  Δ (change in percent purity from time = 0): 0.2%
[2]; room temperature, 12 months
  Δ (change in percent purity from time = 0): −6.8%
[2]; [11]
  decrease in purity: 2.9%
[2]; [12]
  decrease in purity: 6.8%
[2]; stored at room temperature for 12 months, compared to the salt alone
  storage stability when formulated with sucrose and glycine: more stable
